Test results reported in patent publication US7569554B2, “Synergistic treatment of cancer using immunomers in conjunction with therapeutic agents” (Idera Pharmaceuticals, Inc., priority 2003, dated 2009).
Where a name gives a salt, the structure may show the parent alone.

Key:
[1] = test system: human prostate cancer PC3 xenografts; test: Tumor mass, human prostate cancer PC3 xenografts in nude mice, with Gemcitabine; type: in vivo, mouse; details: 160 mg/kg
Experimental: (§1) PC3 cells were cultured in 90% Ham's, F12K Medium with 10% Fetal Bovine Serum (FBS), in presence of 100 U/ml Penicillin and 100 μg/ml Streptomycin to establish the Human Prostate cancer model (PC3). Male athymic nude mice, 4-6 weeks old (Frederick Cancer Research and Development Center, Frederick, Md.), were accommodated for 6 days for environmental adjustment prior to the study. Cultured PC3 cells were harvested from the monolayer cultures, washed twice with Ham's, F12K Medium (10% FBS), resuspended in FBS-free Ham's, F12K Medium: Matrigel basement membrane matrix (Becton Dickinson Labware, Bedford, Mass.) (5:1; V/V), and injected subcutaneously (5×10^6 cells, total volume 0.2 ml) into the left inguinal area of each of the mice. The animals were monitored by general clinical observation, body weight, and tumor growth. Tumor growth was monitored by the measurement, with calipers, of two perpendicular diameters of the implant. Tumor mass (weight in grams) was calculated by the formula, 1/2a X b^2, where ‘a’ is the long diameter (cm) and ‘b’ is the short diameter (cm). When the mean tumor sizes reached ˜80 mg, the animals bearing human cancer xenografts were randomly divided into the treatment and control groups (5 animals/group). The control group received sterile physiological saline (0.9% NaCl) only. Immunomer 255 or 285, aseptically dissolved in physiological saline, was administered by subcutaneously injection at dose of 0.5 or 1.0 mg/kg/day, 3 doses/week. […] The detailed treatment schedule is shown as follows.

[2] = Body weight and clinical observation of PC3 tumor-bearing nude mice; type: in vivo, mouse; details: compared with controls
[3] = test system: CD69+ and CD86+ cells; test: Activation of CD69+ and CD86+ cells in peripheral blood; type: in vivo, mouse; details: docetaxel 30 mg/kg days 1 and 3, IMO 2 5 mg/kg days 1, 3, 5, 7; FIG. 24C
[4] = test system: human prostate cancer PC3 xenografts; test: PC3 xenograft experiment repeated with taxotere; type: in vivo, mouse; design: unit: mg; details: 15 mg/kg
Experimental: as §1
Taxotere was administered on days 0 and 7. Immunomer 165 was administered 5 days per week. Immunomers 255 and 285 were administered on days 0, 2, 4, 7, 9 and 11.

[5] = test system: 4T1 breast tumor; test: 4T1 breast tumor in BALB/c mice, combination with doxorubicin; type: in vivo, mouse; details: IMO 2 1 mg/kg peritumoral, doxorubicin 30 mg/kg i.p; FIG. 24A
Experimental: For the 4T1 tumor models, 5×10^5 cells/mouse in. 100 μl PBS were implanted into BALB/c mice in the lower right flank. On day 5 when the average tumor size reached 50 mm^2, the mice were given i.p injections of 30 mg/kg doxorubicin (Bedford lab, Bedford, Ohio) for three times on days 5, 6 and 7. IMO 2 (1 mg/kg) dissolved in 100 μl PBS was administrated by peritumoral injection at twice a week interval for a total of six times.

[6] = test system: BALB/c mice; test: In vivo serum cytokine induction; design: species or system mouse; details: for IL-6 (serum) / IL-12 (serum): 10 mg/kg, 4 hrs
Experimental: To assess serum cytokine levels, BALB/c mice (n=5) were injected intraperitoneally (i.p), subcutaneously (s.c) or intramuscularly (i.m) with IMO compounds at 10 mg/kg (single dose). Sera was collected by retro-orbital bleeding at 4 hrs of IMO administration and determined IL-112 and IL-6 by sandwich ELISA. Cytokine antibodies and standards were purchased from PharMingen (San Diego, Calif.).
To evaluate the immunopharmacological effects in vivo, IMO compounds, CpG immunomers, and non-CpG oligos were administered to BALB/c mice i.p, s.c or i.m at a dose of 10 mg/kg and their serum was evaluated for IL-12 and IL-6 after 4 hrs.

[7] = test system: CT26.CL25 colon tumor; test: Subcutaneous CT26.CL25 colon tumor in BALB/c mice; type: in vivo, mouse
Experimental: For subcutaneous solid tumor models, 10^6 CT26.CL25 cells/mouse or 5×10^5 B16.F0 cells/mouse in 100 μl of PBS were implanted into BALB/c or C57BL/6 mice in the lower right flank. The tumor size reached to 50 to 200 mg on day 6 for CT26.CL25 and on day 8 for B16.F0 post tumor inoculation. The tumor bearing mice were then treated with peritumoral injection of IMO compounds or non-CpG DNA control at a dose of 1 mg/kg every other day for 10 times. Tumor growth was recorded with the use of calipers, by measuring the long and short diameters of the tumor. Tumor volumes were measured with a caliper and the formula (0.5×length×width^2) was applied to determine tumor growth kinetics.
The antitumor activity of IMO compounds in a murine colon carcinoma CT26.CL25 model was evaluated. BALB/c mice bearing CT26.CL25 subcutaneous solid tumors were treated with 1 mg/kg IMO compounds by peritumoral administration every other day for 10 times starting on day 6 following tumor inoculation.

[8] = In vitro cytokine induction profiles of IMO compounds (FIG. 16); type: cell-based
[9] = test system: Her-2 positive BT-474 cells; test: Lysis of BT-474 cells by IMO-activated human PBMCs in the presence of Herceptin; type: cell-based; details: FIG. 26

Nc1ccn([C@@H]2O[C@H](CO)[C@@H](O)C2(F)F)c(=O)n1 [Gemcitabine, Gemcitabine HCl]
Tumor mass ([1]; Day 0): 82.6 mg
Tumor mass ([1]; Day 3): 73.0 mg
Tumor mass ([1]; Day 9): 35.7 mg
Tumor mass ([1]; Day 12): 36.2 mg
Tumor mass ([1]; Day 15): 31.7 mg
Tumor mass ([1]; Day 18): 40.8 mg
Tumor mass ([1]; Day 24): 56.5 mg
Tumor mass ([1]; Day 27): 68.0 mg
Tumor mass ([1]; Day 30): 89.4 mg
Tumor mass ([1]; Day 33): 106.5 mg
Tumor mass ([1]; Day 36): 144.2 mg
Tumor mass ([1]; Day 39): 175.3 mg
Tumor mass ([1]; Day 42): 269.1 mg
Tumor mass ([1]; Day 45): 383.8 mg
Tumor mass ([1]; Day 48): 538.6 mg
Body weight gains [2]: body weight loss in the first week and recovered in a week afterwards

CC(=O)O[C@@]12CO[C@@H]1C[C@H](O)[C@@]1(C)C(=O)[C@H](O)C3=C(C)[C@@H](OC(=O)[C@H](O)[C@@H](NC(=O)OC(C)(C)C)c4ccccc4)C[C@@](O)([C@@H](OC(=O)c4ccccc4)[C@H]21)C3(C)C [Taxotere, Docetaxel]
Percentage of CD69+ and CD86+ cells [3]: did not inhibit such activations
In vivo anti-cancer activity (tumor mass) ([4]; Day 0.00): 56.64
In vivo anti-cancer activity (tumor mass) ([4]; Day 3.00): 128.51
In vivo anti-cancer activity (tumor mass) ([4]; Day 6.00): 320.63
In vivo anti-cancer activity (tumor mass) ([4]; Day 9.00): 598.69
In vivo anti-cancer activity (tumor mass) ([4]; Day 12.00): 924.91
In vivo anti-cancer activity (tumor mass) ([4]; Day 15.00): 1589.08

COc1cccc2c1C(=O)c1c(O)c3c(c(O)c1C2=O)C[C@@](O)(C(=O)CO)C[C@@H]3O[C@H]1C[C@H](N)[C@H](O)[C@H](C)O1 [doxorubicin, reference compound]
Inhibition of 4T1 tumor growth [5]: strong inhibition

IMO 1: IMO compound of FIG. 15, first in order (SEQ ID NO 13) (DNA TCTGACGTTCT; listed as DNA, chemistry not given here)
IL-6 (serum) ([6]; Intramuscular (i.m)): 5.8 ± 0.5 ng/mL
IL-12 (serum) ([6]; Intramuscular (i.m)): 109.3 ± 25 ng/mL
IL-6 (serum) ([6]; Intraperitoneal (i.p)): 5.9 ± 0.2 ng/mL
IL-12 (serum) ([6]; Intraperitoneal (i.p)): 59.0 ± 11 ng/mL
IL-6 (serum) ([6]; Subcutaneous (s.c)): 4.3 ± 0.3 ng/mL
IL-12 (serum) ([6]; Subcutaneous (s.c)): 98.3 ± 15 ng/mL
Average tumor growth inhibition ([7]; day 24, compared with non-CpG DNA treated mice, 1 mg/kg peritumoral): 72%
IL-12 secretion in vitro [8]: strong IL-12 secretion

IMO 3: IMO compound of FIG. 15 (SEQ ID NO 18) containing a human-specific motif (DNA TCTGTCNTTCT; listed as DNA, further chemistry not given here)
Serum IL-12 secretion in mice ([6]; 4 hr after administration, FIG. 25B): induced IL-12 secretion
Lysis of BT-474 cells [9]: induces lysis of Her-2 positive BT-474 cells in the presence of Herceptin
Antitumor activity ([7]; FIG. 25A): potent antitumor activity
